Data reported in patent publication US9133158B2, “Bicyclic dihydroisoquinoline-1-one derivatives” (Hoffmann-La Roche Inc., priority 2011, dated 2015).

How the values were obtained:
human CYP11B1 = target: T1, human CYP11B1 (Homo sapiens, UniProt P15538); assay: G-402 cellular enzyme assay, human CYP11B1 (cortisol release, HTRF); type: cell-based; settings: G-402 cells, 1 μM Deoxycortisol
T1 construct: expressed in transfected cells
T1 sequence (P15538 25-503): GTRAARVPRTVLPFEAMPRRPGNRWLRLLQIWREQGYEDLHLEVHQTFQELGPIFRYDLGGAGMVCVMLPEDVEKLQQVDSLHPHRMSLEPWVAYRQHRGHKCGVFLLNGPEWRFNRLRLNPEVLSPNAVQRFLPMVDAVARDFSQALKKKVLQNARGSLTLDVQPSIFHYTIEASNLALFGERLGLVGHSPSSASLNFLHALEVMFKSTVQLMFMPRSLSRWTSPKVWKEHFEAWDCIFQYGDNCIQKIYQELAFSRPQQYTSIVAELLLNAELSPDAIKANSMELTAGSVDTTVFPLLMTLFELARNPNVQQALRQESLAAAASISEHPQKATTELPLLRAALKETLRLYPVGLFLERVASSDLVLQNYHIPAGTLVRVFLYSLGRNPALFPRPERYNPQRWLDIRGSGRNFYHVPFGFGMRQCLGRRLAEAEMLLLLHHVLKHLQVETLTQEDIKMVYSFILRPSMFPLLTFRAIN
How it was run: (§1)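 G-402 cells stably expressing human CYP11B1 or CYP11B2, in DMEM/F12 with 2.5% charcoal-treated FCS, were incubated 16 h with test compound and substrate (1 μM 11-deoxycortisol for CYP11B1; 1 μM deoxycorticosterone for CYP11B2). Cortisol or aldosterone in supernatant was quantified by HTRF; EC50 from 4-parameter MMF fit.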

human CYP11B2 = target: T2, human CYP11B2 (Homo sapiens, UniProt P19099); assay: G-402 cellular enzyme assay, human CYP11B2 (aldosterone release, HTRF); type: cell-based; settings: G-402 cells, 1 μM Deoxycorticosterone
T2 construct: expressed in transfected cells
T2 sequence (P19099 25-503): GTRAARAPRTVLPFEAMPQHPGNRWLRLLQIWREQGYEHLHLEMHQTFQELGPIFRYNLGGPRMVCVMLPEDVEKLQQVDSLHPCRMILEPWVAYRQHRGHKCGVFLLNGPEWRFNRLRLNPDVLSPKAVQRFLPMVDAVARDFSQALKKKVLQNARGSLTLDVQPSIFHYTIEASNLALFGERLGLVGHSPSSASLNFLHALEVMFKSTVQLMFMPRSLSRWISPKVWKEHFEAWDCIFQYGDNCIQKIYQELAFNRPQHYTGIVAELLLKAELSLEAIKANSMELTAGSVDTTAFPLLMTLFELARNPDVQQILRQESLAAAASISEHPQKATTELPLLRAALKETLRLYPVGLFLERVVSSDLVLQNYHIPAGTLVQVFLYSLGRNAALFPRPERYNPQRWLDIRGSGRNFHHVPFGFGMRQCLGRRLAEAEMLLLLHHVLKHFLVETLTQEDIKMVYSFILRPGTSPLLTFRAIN
How it was run: as §1

SMILES | EC50 (human CYP11B1) [nM] | EC50 (human CYP11B2) [nM]
Nc1cncc(N2CCc3cc(Cl)ccc3C2=O)c1 [Example 17, 2-(5-Aminopyridin-3-yl)-6-chloro-3,4-dihydro-2H-isoquinolin-1-one] | 14000 | 597
O=C1c2ccc(Cl)cc2CCN1c1cncc(-c2cccc(OC(F)(F)F)c2)c1 [Example 237, 6-Chloro-2-[5-(3-trifluoromethoxy-phenyl)-pyridin-3-yl]-3,4-dihydro-2H-isoquinolin-1-one] | 3610 | 204
O=C1c2ccc(Cl)cc2CCN1c1cncc(CN2CCCC(F)(F)C2)c1 [Example 172, 6-Chloro-2-[5-(3,3-difluoro-piperidin-1-ylmethyl)-pyridin-3-yl]-3,4-dihydro-2H-isoquinolin-1-one] | 144 | 22.3
CC(O)(c1ccccc1)c1cncc(N2CCc3cc(Cl)ccc3C2=O)c1 (stereo not drawn) [Example 35, 6-Chloro-2-[5-(1-hydroxy-1-phenyl-ethyl)-pyridin-3-yl]-3,4-dihydro-2H-isoquinolin-1-one] | 146 | 18.8
CC[C@H]1c2cc(Cl)ccc2C(=O)N1c1cncc2c1CC[C@H]2NS(C)(=O)=O (single isomer, unassigned) [Example 368, N-[(R or S)-4-((S or R)-5-Chloro-3-ethyl-1-oxo-1,3-dihydro-isoindol-2-yl)-6,7-dihydro-5H-[2]pyrindin-7-yl]-methanesulfonamide] | 723 | 12.1
O=C1c2ccc(Cl)cc2CCN1c1cncc(COc2ccccc2F)c1 [Example 199, 6-Chloro-2-[5-(2-fluoro-phenoxymethyl)-pyridin-3-yl]-3,4-dihydro-2H-isoquinolin-1-one] | 282 | 104
Cc1cncc(N2CCc3cc(Cl)ccc3C2=O)c1 [Example 8, 6-Chloro-2-(5-methyl-pyridin-3-yl)-3,4-dihydro-2H-isoquinolin-1-one] | 807 | 44.9
O=C1c2ccc(Cl)cc2CCN1c1cncc(Cc2cccc(F)c2F)c1 [Example 210] | 130 | 18.6
O=C1c2ccc(Cl)cc2CCN1c1cncc(CCO)c1 [Example 23, 6-Chloro-2-[5-(2-hydroxy-ethyl)-pyridin-3-yl]-3,4-dihydro-2H-isoquinolin-1-one] | 571 | 64
O=C1c2ccc(Cl)cc2C(Cc2ccccc2)N1c1cccnc1 (stereo not drawn) [Example 124, 3-Benzyl-5-chloro-2-pyridin-3-yl-2,3-dihydro-isoindol-1-one] | 225 | 1070
CC1(C)c2cc(F)ccc2C(=O)N1c1cncc(CNS(C)(=O)=O)c1 [Example 403, N-[5-(6-Fluoro-1,1-dimethyl-3-oxo-1,3-dihydro-isoindol-2-yl)-pyridin-3-ylmethyl]-methane-sulfonamide] | 1930 | 31.7
Cc1ccc(C(=O)NCc2cncc(N3C(=O)c4ccc(Cl)cc4C3(C)C)c2)cn1 [Example 436, N-[5-(6-Chloro-1,1-dimethyl-3-oxo-1,3-dihydro-isoindol-2-yl)-pyridin-3-ylmethyl]-6-methyl-nicotinamide] | 158 | 5.8
O=C1CCCCN1Cc1cncc(N2Cc3cc(Cl)ccc3C2=O)c1 [Example 114, 5-Chloro-2-[5-(2-oxo-piperidin-1-ylmethyl)-pyridin-3-yl]-2,3-dihydro-isoindol-1-one] | 12800 | 424
CNC(C)c1cncc(N2CCc3cc(Cl)ccc3C2=O)c1 (stereo not drawn) [Example 265, 6-Chloro-2-[5-(1-methylamino-ethyl)-pyridin-3-yl]-3,4-dihydro-2H-isoquinolin-1-one] | 5020 | 437
O=C1c2ccc(Cl)cc2CCN1c1cncc(Cc2c(Cl)cccc2Cl)c1 [Example 214, 6-Chloro-2-[5-(2,6-dichloro-benzyl)-pyridin-3-yl]-3,4-dihydro-2H-isoquinolin-1-one] | 300 | 63.6
